Read-outs that look alike come from different tables or passages of the source.
What was measured:
[1] = system: primary cultured guinea-pig urinary bladder (GPB) cells; assay: Membrane hyperpolarization (MHP) assay, DiBAC(4)3 / FLIPR; assay type: cell-based; details: for EC50: concentration that elicits 50% of the maximal response for the test sample; for Emax: maximal steady-state hyperpolarization, normalized to response with 10 μM P1075 (100%)
Method: Compounds were evaluated for potassium channel opening activity using primary cultured guinea-pig urinary bladder (GPB) cells.
For the preparation of urinary bladder smooth muscle cells, urinary bladders were removed from male guinea-pigs (Hartley, Charles River, Wilmington, Mass.) weighing 300-400 g and placed in ice-cold Ca^2+-free Krebs solution (Composition, mM: KCl, 2.7; KH2PO4, 1.5; NaCl, 75; Na2HPO4, 9.6; Na2HPO4.7H2O, 8; MgSO4, 2; glucose, 5; HEPES, 10; pH 7.4). Cells were isolated by enzymatic dissociation as previously described with minor modifications (Klockner, U. and Isenberg, G., Pflugers Arch. (1985), 405, 329-339), hereby incorporated by reference. The bladder was cut into small sections and incubated in 5 mL of the Kreb's solution containing I mg/mL collagenase (Sigma, St. Louis, Mo.) and 0.2 mg/mL pronase (Calbiochem, La Jolla, Calif.) with continuous stirring in a cell incubator for 30 minutes. The mixture was then centrifuged at 1300×g for 5 minutes, and the pellet resuspended in Dulbecco's PBS (GIBCO, Gaithersburg, Md.) and recentrifuged to remove residual enzyme. The cell pellet was resuspended in 5 mL growth media (composition: Dulbecco's modified Eagle's medium supplemented with 10% fetal bovine serum, 100 units/mL penicillin, 100 units/mL streptomycin and […] amphotericin B) and further dissociated by pipetting the suspension through a flame-polished Pasteur pipette and passing it through a polypropylene mesh membrane (Spectrum, Houston, Tex.). The cell density was adjusted to 100,000 cells/mL by resuspension in growth media. Cells were plated in clear-bottomed black 96-well plates (Packard) for membrane potential studies at a density of 20,000 cells/well and maintained in a cell incubator with 90% air: 10% CO2 until confluent. Cells were confirmed to be of smooth muscle type by cytoskeletal staining using a monoclonal mouse anti human-α-smooth muscle actin (Biomeda, Foster City, Calif.).
Functional activity at potassium channels was measured by evaluating changes in membrane potential using the bis-oxonol dye DiBAC(4) (Molecular Probes) in a 96-well cell-based kinetic assay system, Fluorescent Imaging Plate Reader (FLIPR) (K. S. Schroeder et al., J. Biomed. Screen., v. 1 pp. 75-81 (1996)), hereby incorporated by reference. DiBAC(4)3 is an anionic potentiometric probe which partitions between cells and extracellular solution in a membrane potential-dependent manner. With increasing membrane potential (for example, K^+ depolarization), the probe further partitions into the cell; this is measured as an increase in fluorescence due to dye interaction with intracellular lipids and proteins. Conversely, decreasing membrane potential (hyperpolarization by potassium channel openers) evokes a decrease in fluorescence.
Confluent guinea-pig urinary bladder cells cultured in black clear-bottomed 96-well plates were rinsed twice with […] assay buffer (composition, mM: HEPES, 20; NaCl, 120; KCl, 2; CaCl2, 2; MgCl2, 1; glucose, 5; pH 7.4 at 25° C.) containing 5 μM DiBAC(4)3 and incubated with […] of the buffer in a cell incubator for 30 minutes at 37° C. to ensure dye distribution across the membrane. After recording the baseline fluorescence for 5 minutes, the reference or test compounds, prepared at 10 times the concentration in the assay buffer, were added directly to the wells. Changes in fluorescence were monitored for an additional 25 minutes. Hyperpolarization responses were corrected for any background noise and were normalized to the response observed with 10 μM of the reference compound P1075 (assigned as 100%), a potent opener of smooth muscle KATP channels (Quast et al., Mol. Pharmacol., v. 43 pp. 474-481 (1993)), hereby incorporated by reference.
Routinely, five concentrations of P1075 or test compounds (log or half-log dilutions) were evaluated and the maximal steady-state hyperpolarization values (expressed as % relative to P1075) plotted as a function of concentration. […]

[2] = system: tissue strips obtained from Landrace pig bladders; assay: Functional potassium channel opening activity in isolated bladder strips (field-stimulated twitch); details: for Index: ED50 for P1075 divided by ED50 for the test agonist in a given tissue, averaged; for EC50: amount of agent necessary to cause 50% of the agent's maximal response, read-out: ED50 (the source's name); for Emax / Efficacy (% P1075): maximal efficacy relative to P1075, field stimulation 0.05 Hz, 0.5 ms, 20 volts
Method: Compounds were evaluated for functional potassium channel opening activity using tissue strips obtained from Landrace pig bladders.
Landrace pig bladders were obtained from female Landrace pigs of 9-30 kg. Landrace pigs were euthanized with an intraperitoneal injection of pentobarbital solution, Somlethal®, J. A. Webster Inc., Sterling, Mass. The entire bladder was removed and immediately placed into Krebs Ringer bicarbonate solution (composition, mM: NaCl, 120; NaHCO3, 20; dextrose, 11; KCl, 4.7; CaCl2, 2.5; MgSO4, 1.5; KH2PO4, 1.2; K2EDTA, 0.01, equilibrated with 5% CO2/95% O2pH 7.4 at 37° C.). Propranolol (0.004 mM) was included in all of the assays to block β-adrenoceptors. The trigonal and dome portions were discarded. Strips 3-5 mm wide and 20 mm long were prepared from the remaining tissue cut in a circular fashion. The mucosal layer was removed. One end was fixed to a stationary glass rod and the other to a Grass FT03 transducer at a basal preload of 1.0 gram. Two parallel platinum electrodes were included in the stationary glass rod to provide field stimulation of 0.05 Hz, 0.5 milli-seconds at 20 volts. This low frequency stimulation produced a stable twitch response of 100-500 centigrams. Tissues were allowed to equilibrate for at least 60 minutes and primed with 80 mM KCl. A control concentration response curve (cumulative) was generated for each tissue using the potassium channel opener P1075 as the control agonist. […] After a 60 minute rinsing period, a concentration response curve (cumulative) was generated for the test agonist in the same fashion as that used for the control agonist P1075. The maximal efficacy of each compound (expressed as % relative to P1075) is reported. The amount of agent necessary to cause 50% of the agent's maximal response (ED50) was calculated using “ALLFIT” (DeLean et al., Am. J. Physiol., 235, E97 (1980)), hereby incorporated by reference. Agonist potencies were also expressed as an index relative to P1075. The index was calculated by dividing the ED50 for P1075 by the ED50 for the test agonist in a given tissue. Each tissue was used for only one test agonist, and the indices obtained from each tissue were averaged to provide an average index of potency.

EC50 ([1]; Cavia porcellus) [µM] | EC50 ([2]; Sus scrofa) [µM] | EC50 [2] [µM] | EC50 [1] [µM] | SMILES | Emax ([1]; Cavia porcellus) [%] | Index [2] | Emax ([2]; Sus scrofa) [%] | Efficacy (% P1075) [2] [% P1075]
0.1 | 7 |  |  | Cc1ccc(C(=O)NC(NC(=O)Nc2cccnc2)C(Cl)(Cl)Cl)cc1 (stereo not drawn) [Example 38, 4-methyl-N-(2,2,2-trichloro-1-{[(3-pyridinylamino)carbonyl]amino}ethyl)benzamide] | 100 | 0.015 | 98 | 
0.5 | 42 |  |  | CC(C)(C)C(NC(=O)c1ccccc1)NC(=S)Nc1cccnc1 (stereo not drawn) [Example 28, N-(2,2-dimethyl-1-{[(3-pyridinylamino)carbothioyl]amino}propyl)benzamide] | 77 | 0.004 | 100 | 
0.35 | 10 |  |  | Cc1ccc(C(=O)NC(NC(=S)Nc2cccc(F)c2)C(F)(F)F)cc1 (stereo not drawn) [Example 13, 4-methyl-N-(2,2,2-trifluoro-1-{[(3-fluoroanilino)carbothioyl]amino}ethyl)benzamide] | 91 | 0.022 | 95 | 
0.3 | 14 |  |  | Cc1ccc(C(=O)NC(NC(=S)Nc2cc(F)ccc2F)C(F)(F)F)cc1 (stereo not drawn) [Example 14, N-(1-{[(2,5-difluoroanilino)carbothioyl]amino}-2,2,2-trifluoroethyl)-4-methylbenzamide] | 110 | 0.027 | 96 | 
0.16 |  |  |  | CCCCC(C)(C)C(NC(=O)c1ccc(Cl)cc1)NC(=NC#N)Nc1cccnc1 (stereo not drawn) [Example 94, 4-chloro-N-(1-{[(cyanoimino)(3-pyridinylamino)methyl]amino}-2,2-dimethylhexyl)benzamide] | 82 |  |  | 
0.04 |  |  |  | N#CN=C(Nc1cccnc1)NC(NC(=O)c1ccc(Cl)cc1)C(Cl)(Cl)Cl (stereo not drawn) [Example 45, 4-chloro-N-(2,2,2-trichloro-1-{[(cyanoimino)(3-pyridinylamino)methyl]amino}ethyl)benzamide] | 92 |  |  | 
0.24 |  |  |  | C=CCOCC(CC)(COCC=C)C(NC(=O)c1ccc(Cl)cc1)NC(=NC#N)Nc1cccnc1 (stereo not drawn) [Example 96, N-(2,2-bis[(allyloxy)methyl]-1-{[(cyanoimino)(3-pyridinylamino)methyl]amino}butyl)-4-chlorobenzamide] | 93 |  |  | 
 |  | 3.3 |  | CC(Cl)(Cl)C(NC(=O)c1ccc(Cl)cc1)NC(=NC#N)Nc1cccnc1 (stereo not drawn) [Example 116, 4-chloro-N-(2,2-dichloro-1-{[(cyanoimino)(3-pyridinylamino)methyl]amino}propyl)benzamide] |  | 0.028 |  | 94
 | 4.2 |  |  | Cc1cccc(C(=O)NC(NC(=NC#N)Nc2ccc(Cl)nc2)C(C)(Cl)Cl)c1 (stereo not drawn) [Example 170, N-(2,2-dichloro-1-{[[(6-chloro-3-pyridinyl)amino](cyanoimino)methyl]amino}propyl)-3-methylbenzamide] |  | 0.012 | 100 | 
 | 6.2 |  |  | CC(C)(C)C(NC(=O)c1cc(F)cc(F)c1)NC(=NC#N)Nc1cccnc1 (stereo not drawn) [Example 110, N-(1-{[(cyanoimino)(3-pyridinylamino)methyl]amino}-2,2-dimethylpropyl)-3,5-difluorobenzamide] |  | 0.017 | 61 | 
 |  | 22 |  | CC(Cl)(Cl)C(NC(=O)c1ccc(Cl)cc1)NC(=NC#N)Nc1cccnc1 (single isomer, unassigned; (+)) [Example 118, (+) 4-chloro-N-(2,2-dichloro-1-{[(cyanoimino)(3-pyridinylamino)methyl]amino}propyl)benzamide] |  | 0.006 |  | 69
 |  |  | 0.082 | CC1=C(CC(NC(=O)c2ccc(Cl)cc2)NC(=NC#N)Nc2cccnc2)C(C)(C)CCC1 (stereo not drawn) [Example 66, 4-chloro-N-[1-{[(cyanoimino)(3-pyridinylamino)methyl]amino}-2-(2,6,6-trimethyl-1-cyclohexen-1-yl)ethyl]benzamide] | 79 |  |  | 
 |  | 1.2 |  | CC(C)(C)CC(NC(=O)c1ccc(Cl)cc1)NC(=NS(=O)(=O)C(F)(F)F)Nc1cccnc1 (single isomer, unassigned; (+)) [Example 186, (+) 4-chloro-N-{3,3-dimethyl-1-[((3-pyridinylamino){[(trifluoromethyl)sulfonyl]imino}methyl)amino]butyl}benzamide] |  | 2.1 |  | 66
 | 2.5 |  |  | CC(Cl)(Cl)C(NC(=O)c1cc(F)cc(F)c1)NC(=NC#N)Nc1ccc(C(F)(F)F)nc1 (stereo not drawn) [Example 155, N-{2,2-dichloro-1-[((cyanoimino){[6-(trifluoromethyl)-3-pyridinyl]amino}methyl)amino]propyl}-3,5-difluorobenzamide] |  | 0.022 | 95 | 
 | 7.9 |  |  | CC(Cl)(Cl)C(NC(=O)c1cccc(Cl)c1)NC(=NC#N)Nc1ccc(C(F)(F)F)nc1 (stereo not drawn) [Example 159, 3-chloro-N-{2,2-dichloro-1-[((cyanoimino){[6-(trifluoromethyl)-3-pyridinyl]amino}methyl)amino]propyl}benzamide] |  | 0.013 | 92 | 
 |  |  | 0.13 | CCC(CC)(CCC#N)C(NC(=O)c1ccc(Cl)cc1)NC(=NC#N)Nc1cccnc1 (stereo not drawn) [Example 65, 4-chloro-N-(4-cyano-1-{[(cyanoimino)(3-pyridinylamino)methyl]amino}-2,2-diethylbutyl)benzamide] | 89 |  |  | 
 | 4.8 |  |  | N#CN=C(Nc1cccnc1)NC(NC(=O)c1ccc(Cl)cc1)C(F)(F)C(F)(F)F (stereo not drawn) [Example 121, 4-chloro-N-(1-{[(cyanoimino)(3-pyridinylamino)methyl]amino}-2,2,3,3,3-pentafluoropropyl)benzamide] |  | 0.044 | 89 | 

— patent US20020028836A1, “Potassium channel openers” (priority 2000, published 2002)
